The values below come from patent US20080248511A1, “METHODS TO QUENCH LIGHT FROM OPTICAL REACTIONS” (priority 2007, published 2008).

The target in one assay is firefly luciferase (Photinus pyralis, UniProt P08659). Kind of assay: Non-detergent compound screen, firefly luciferase (Example 6). It counts as biochemical. The note with it: 0.5% Tergitol NP-9, 0.03% BDDABr, read-out: Retained Firefly Luciferase Value (%); for remaining activity at 23 µM: inhibitor 23 μM; for remaining activity at 153 µM: inhibitor 153 μM; for remaining activity at 1000 µM: inhibitor 1000 μM; for remaining activity at 10 µM: inhibitor 10 μM; for remaining activity at 100 µM: inhibitor 100 μM. As for the experimental part: (§1) Each compound was diluted into 200 mM MOPS pH 6.7, 4 μM MgSO4, 1 mM CDTA, 0.5% Tergitol NP-9, 0.05% Mazu-DF-204, 0.03% BDDABr, 30 mM thiourea, 1 mM bis-(2-mercaptoethylsulfone) (BMS), 4 μM CoA, and 1 μM 5-fluoroluciferin. Just prior to the luciferase reaction, 0.1% Prionex® (Pentapharm) and 2.9 μM coelenterazine-h (Promega) were added to each solution.
(§2) The firefly luciferase and Renilla luciferase enzymes were diluted as described in Examples 3 and 5. The luciferase reactions were initiated by adding 50 μl of the firefly luciferase and Renilla luciferase enzyme solution to 50 μl of reagent solution. The reactions were performed as described above. The retained Renilla and firefly luciferase-mediated luminescence and selectivity values for each inhibitor tested are listed in Table 6.

The next assay concerns the target T1, Renilla luciferase (Renilla reniformis, UniProt P27652).
T1 sequence (P27652 1-311): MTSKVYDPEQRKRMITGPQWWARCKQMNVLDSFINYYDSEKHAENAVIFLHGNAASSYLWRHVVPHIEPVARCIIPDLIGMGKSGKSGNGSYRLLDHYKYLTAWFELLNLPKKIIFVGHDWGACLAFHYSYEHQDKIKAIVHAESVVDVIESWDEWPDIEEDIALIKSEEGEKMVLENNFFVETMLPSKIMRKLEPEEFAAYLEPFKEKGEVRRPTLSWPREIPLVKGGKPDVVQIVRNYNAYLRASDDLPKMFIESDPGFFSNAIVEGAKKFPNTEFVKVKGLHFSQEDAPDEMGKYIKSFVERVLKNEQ
Kind of assay: Non-detergent compound screen, Renilla luciferase (Example 6). The note with it: for remaining activity at 23 µM / remaining activity at 153 µM / remaining activity at 1000 µM / remaining activity at 10 µM / remaining activity at 100 µM: 0.5% Tergitol NP-9, 0.03% BDDABr, read-out: Retained Renilla Luciferase Value (%). The format is biochemical. As for the experimental part: as §1, §2

Chain of firefly luciferase (P08659 whole entry): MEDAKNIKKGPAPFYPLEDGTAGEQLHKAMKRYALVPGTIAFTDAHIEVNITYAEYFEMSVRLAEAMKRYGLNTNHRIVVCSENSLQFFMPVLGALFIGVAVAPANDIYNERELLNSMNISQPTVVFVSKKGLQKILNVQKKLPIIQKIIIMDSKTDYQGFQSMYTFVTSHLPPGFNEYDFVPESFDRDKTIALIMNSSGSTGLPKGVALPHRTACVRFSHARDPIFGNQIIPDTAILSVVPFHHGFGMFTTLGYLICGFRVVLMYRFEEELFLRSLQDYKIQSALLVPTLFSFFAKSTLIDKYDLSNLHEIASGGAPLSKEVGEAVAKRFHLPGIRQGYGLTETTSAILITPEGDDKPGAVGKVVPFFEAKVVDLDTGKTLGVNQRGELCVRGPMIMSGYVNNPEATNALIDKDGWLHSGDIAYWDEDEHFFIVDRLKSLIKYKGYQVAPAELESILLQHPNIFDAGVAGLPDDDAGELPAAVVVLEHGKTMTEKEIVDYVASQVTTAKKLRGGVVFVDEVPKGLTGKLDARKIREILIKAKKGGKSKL

As for `COc1ccc(CNC(=O)COc2ccc3[nH]cc(CCN(C)C)c3c2)cc1` [Compound 3031, 2-(3-(2-(dimethylamino)ethyl)-1H-indol-5-yloxy)-N-(4-methoxybenzyl)acetamide], at firefly luciferase, the remaining activity at 23 µM was determined as 96%, the remaining activity at 153 µM amounted to 89% and the remaining activity at 1000 µM amounted to 89%. For the same compound, at Renilla luciferase, the “inhibitor of Renilla luciferase, grade in words” value (shortened to “inhibitor of Renilla luciferase”) is reported as “suitable inhibitors of Renilla luciferase”. On Renilla luciferase (inhibitor 23 μM), the “Selectivity Value” came out at 1 and the remaining activity at 23 µM came out at 96%. At Renilla luciferase (inhibitor 153 μM), the “Selectivity Value” is reported as 0.99 and the remaining activity at 153 µM is 90%. Moreover, on Renilla luciferase (inhibitor 1000 μM), the “Selectivity Value” was 1.4 and the remaining activity at 1000 µM was found to be 66.5%.
On to `CN(C)CCc1c[nH]c2ccc(/C=C/C(=O)NCc3ccc(N(C)C)cc3)cc12` [Compound 3043, (E)-N-(4-(dimethylamino)benzyl)-3-(3-(2-(dimethylamino)ethyl)-1H-indol-5-yl)acrylamide], for which the “inhibitor of Renilla luciferase” value against Renilla luciferase is reported as “excellent inhibitors of Renilla luciferase”.
With `COc1ccc(CNC(=O)/C(C#N)=C/c2ccc3[nH]cc(CCN(C)C)c3c2)cc1` [Compound 3044, (E)-2-cyano-3-(3-(2-(dimethylamino)ethyl)-1H-indol-5-yl)-N-(4-methoxybenzyl)acrylamide], the values for the remaining activity at 10 µM on firefly luciferase and on Renilla luciferase (inhibitor 10 μM) were 99% and 85%, respectively. The remaining activity at 100 µM at firefly luciferase worked out at 100%; at Renilla luciferase (inhibitor 100 μM) it was 36%. Moreover, the values for the remaining activity at 1000 µM on firefly luciferase and at Renilla luciferase (inhibitor 1000 μM) were 132% and 7.6%, respectively. Further, the “inhibitor of Renilla luciferase” value on Renilla luciferase is recorded as “inhibitors of Renilla luciferase”. Besides, the “Selectivity Value” at Renilla luciferase (inhibitor 10 μM) is recorded as 1.2; at Renilla luciferase (inhibitor 100 μM) it was 2.8; at Renilla luciferase (inhibitor 1000 μM), 18.9.
As for `COc1ccc(COC(=O)/C=C/c2ccc3[nH]cc(CCN(C)C)c3c2)cc1` [Compound 3045, (E)-4-methoxybenzyl 3-(3-(2-(dimethylamino)ethyl)-1H-indol-5-yl)acrylate], on firefly luciferase, the remaining activity at 23 µM was determined as 100%, the remaining activity at 153 µM is 100% and the remaining activity at 1000 µM was determined as 98%. Also, the “inhibitor of Renilla luciferase” value at Renilla luciferase is “suitable inhibitors of Renilla luciferase”. Further, on Renilla luciferase (inhibitor 23 μM), the “Selectivity Value” is 1.0 and the remaining activity at 23 µM came to 97%. Besides, on Renilla luciferase (inhibitor 153 μM), the “Selectivity Value” came to 1.0 and the remaining activity at 153 µM is 98%. Besides, at Renilla luciferase (inhibitor 1000 μM), the “Selectivity Value” is 1.3 and the remaining activity at 1000 µM turned out to be 74.7%.
As for `COc1ccc(CNC(=O)/C=C/c2ccc3ncccc3c2)cc1` [Compound 3046, (E)-N-(4-methoxybenzyl)-3-(quinolin-6-yl)acrylamide], at firefly luciferase, the remaining activity at 10 µM turned out to be 100%, the remaining activity at 100 µM came out at 99% and the remaining activity at 1000 µM stood at 83%. The “inhibitor of Renilla luciferase” value at Renilla luciferase was “inhibitors of Renilla luciferase”. In addition, at Renilla luciferase (inhibitor 10 μM), the “Selectivity Value” is given as 1.0 and the remaining activity at 10 µM stood at 96%. On Renilla luciferase (inhibitor 100 μM), the “Selectivity Value” worked out at 1.3 and the remaining activity at 100 µM worked out at 78%. Moreover, on Renilla luciferase (inhibitor 1000 μM), the “Selectivity Value” is listed as 3.4 and the remaining activity at 1000 µM is 24.5%.
Regarding `COc1ccc(CNC(=O)/C=C/c2ccc3c(c2)c(CCN(C)C)cn3C)cc1` [Compound 3049, (E)-3-(3-(2-(dimethylamino)ethyl)-1-methyl-1H-indol-5-yl)-N-(4-methoxybenzyl)acrylamide], the “inhibitor of Renilla luciferase” value on Renilla luciferase is listed as “excellent inhibitors of Renilla luciferase”.
On to `CCCCCCNC(=O)/C=C/c1ccc2[nH]cc(CCN(C)C)c2c1` [Compound 3050, (E)-3-(3-(2-(dimethylamino)ethyl)-1H-indol-5-yl)-N-hexylacrylamide], for which, on firefly luciferase, the remaining activity at 23 µM is 102%, the remaining activity at 153 µM turned out to be 102% and the remaining activity at 1000 µM amounted to 102%. Besides, on Renilla luciferase, the “inhibitor of Renilla luciferase” value is recorded as “suitable inhibitors of Renilla luciferase”. Moreover, at Renilla luciferase (inhibitor 23 μM), the “Selectivity Value” is on record as 1.1 and the remaining activity at 23 µM stood at 93%. On Renilla luciferase (inhibitor 153 μM), the “Selectivity Value” is given as 1.0 and the remaining activity at 153 µM was 99%. Further, at Renilla luciferase (inhibitor 1000 μM), the “Selectivity Value” is on record as 1.9 and the remaining activity at 1000 µM was 55%.
For the compound `COc1ccc(CNC(=O)/C=C/c2ccc3[nH]cc(CCN(C)C)c3c2)c(OC)c1` [Compound 3051, (E)-N-(2,4-dimethoxybenzyl)-3-(3-(2-(dimethylamino)ethyl)-1H-indol-5-yl)acrylamide], the results for the remaining activity at 10 µM at firefly luciferase and on Renilla luciferase (inhibitor 10 μM) were 102% and 55%, respectively. The remaining activity at 100 µM stood at 102% on firefly luciferase and 14% on Renilla luciferase (inhibitor 100 μM). Moreover, the remaining activity at 1000 µM was 102% on firefly luciferase and 1.9% on Renilla luciferase (inhibitor 1000 μM). Besides, the “inhibitor of Renilla luciferase” value against Renilla luciferase is on record as “excellent inhibitors of Renilla luciferase”. The “Selectivity Value” amounted to 1.9 on Renilla luciferase (inhibitor 10 μM), 7.3 on Renilla luciferase (inhibitor 100 μM) and 53.7 on Renilla luciferase (inhibitor 1000 μM).
As for `C=C(C(=O)NCc1ccc(OC)cc1)c1ccc2ncccc2c1` [Compound 3053, N-(4-methoxybenzyl)-2-(quinolin-6-yl)acrylamide], at firefly luciferase, the remaining activity at 23 µM is 100%, the remaining activity at 153 µM was 97% and the remaining activity at 1000 µM worked out at 91%. In addition, at Renilla luciferase, the “inhibitor of Renilla luciferase” value is reported as “suitable inhibitors of Renilla luciferase”. Moreover, on Renilla luciferase (inhibitor 23 μM), the “Selectivity Value” was 1.1 and the remaining activity at 23 µM was 95%. On Renilla luciferase (inhibitor 153 μM), the “Selectivity Value” turned out to be 1.1 and the remaining activity at 153 µM amounted to 90%. Besides, at Renilla luciferase (inhibitor 1000 μM), the “Selectivity Value” stood at 1.1 and the remaining activity at 1000 µM was 84.7%.
`C=C(C(=O)NCc1ccc(OC)cc1)c1ccc2[nH]ccc2c1` [Compound 3054, 2-(1H-indol-5-yl)-N-(4-methoxybenzyl)acrylamide]: the figures for the remaining activity at 23 µM on firefly luciferase and on Renilla luciferase (inhibitor 23 μM) were 101% and 95%, respectively. Further, the remaining activity at 153 µM was determined as 102% at firefly luciferase and 95% on Renilla luciferase (inhibitor 153 μM). In addition, the remaining activity at 1000 µM on firefly luciferase worked out at 101%; at Renilla luciferase (inhibitor 1000 μM) it was 93.3%. For the same compound, at Renilla luciferase, the “inhibitor of Renilla luciferase” value is “suitable inhibitors of Renilla luciferase”. Besides, the “Selectivity Value” on Renilla luciferase (inhibitor 23 μM), at Renilla luciferase (inhibitor 153 μM) and on Renilla luciferase (inhibitor 1000 μM) was 1.1 each time.
For `COc1ccc(CNC(=O)/C=C/c2ccc3c(c2)c(CCN(C)C)cn3Cc2ccccc2)cc1` [Compound 3055, (E)-3-(1-benzyl-3-(2-(dimethylamino)ethyl)-1H-indol-5-yl)-N-(4-methoxybenzyl)acrylamide], on firefly luciferase, the remaining activity at 10 µM was 100%, the remaining activity at 100 µM came to 98% and the remaining activity at 1000 µM came to 99%. Further, at Renilla luciferase, the “inhibitor of Renilla luciferase” value was “inhibitors of Renilla luciferase”. On Renilla luciferase (inhibitor 10 μM), the “Selectivity Value” stood at 1.2 and the remaining activity at 10 µM came out at 85%. Besides, on Renilla luciferase (inhibitor 100 μM), the “Selectivity Value” is on record as 2.2 and the remaining activity at 100 µM turned out to be 44%. On Renilla luciferase (inhibitor 1000 μM), the “Selectivity Value” turned out to be 5.0 and the remaining activity at 1000 µM was 20%.
Turning to `COc1ccc(CNC(=O)/C=C/c2ccc3[nH]ccc3c2)cc1` [Compound 3056, (E)-3-(1H-indol-5-yl)-N-(4-methoxybenzyl)acrylamide], on firefly luciferase, the remaining activity at 10 µM is 101%, the remaining activity at 100 µM was determined as 100% and the remaining activity at 1000 µM was 89%. Also, the “inhibitor of Renilla luciferase” value at Renilla luciferase was “inhibitors of Renilla luciferase”. On Renilla luciferase (inhibitor 10 μM), the “Selectivity Value” was 1.1 and the remaining activity at 10 µM was found to be 93%. For the same compound, at Renilla luciferase (inhibitor 100 μM), the “Selectivity Value” is given as 1.3 and the remaining activity at 100 µM is 79%. Besides, at Renilla luciferase (inhibitor 1000 μM), the “Selectivity Value” amounted to 2.7 and the remaining activity at 1000 µM came out at 32.6%.
